Earlier results in PubChem BioAssay AID1259409 (Chemical Carcinogenesis Research Information System (CCRIS), 2018).
Where a SMILES comes first, the peptide text is derived from it. [ ]: non-standard residue; d: D form. The star is where a group is joined. Sta = CC(C)C[C@H](N)[C@@H](O)CC(=O)O; Isovaleryl = CC(C)CC(=O)*

Tested on: rodent chemically induced tumor inhibition, incidence and multiplicity
Experiment: CCRIS tumor inhibitor studies

For `CCCCCCCCCCCCC/C=C/[C@@H](O)[C@H](COP(=O)(O)OCC[N+](C)(C)C)NC=O`, the “tumour outcome (control, treated, inhibition, significance)” value (Carcinogen: 1,2-DIMETHYLHYDRAZINE DIHYDROCHLORIDE, 306-37-6, Dose [Inhibitor]: 0, 0.025 G/100 G DIET FOR 28 WK BEGINNING 1 WK POST CARCINOGEN TREATMENT (STUDY DURATION: 59 WK), Route [Inhibitor]: ORAL, Species: MOUSE, Strain/Sex: CF-1/FEMALE, Target Tissue: Type of Lesion: COLON: TUMOR, Dose [Carcinogen]: 20 MG/KG BW 1/WK FOR 6 WK, Promoter: NONE USED) is given as 7/15 (47%), 2/10 (20%), 57%, p=0.08, the “tumour outcome (control, treated, inhibition, significance)” value (Carcinogen: 1,2-DIMETHYLHYDRAZINE DIHYDROCHLORIDE, 306-37-6, Dose [Inhibitor]: 0, 0.05 G/100 G DIET FOR 28 WK BEGINNING 1 WK POST CARCINOGEN TREATMENT (STUDY DURATION: 59 WK), Route [Inhibitor]: ORAL, Species: MOUSE, Strain/Sex: CF-1/FEMALE, Target Tissue: Type of Lesion: COLON: TUMOR, Dose [Carcinogen]: 20 MG/KG BW 1/WK FOR 6 WK, Promoter: NONE USED) is given as 7/15 (47%), 3/14 (21%), 55%, p=0.08 and the “tumour outcome (control, treated, inhibition, significance)” value (Carcinogen: 1,2-DIMETHYLHYDRAZINE DIHYDROCHLORIDE, 306-37-6, Dose [Inhibitor]: 0, 0.1 G/100 G DIET FOR 28 WK BEGINNING 1 WK POST CARCINOGEN TREATMENT (STUDY DURATION: 59 WK), Route [Inhibitor]: ORAL, Species: MOUSE, Strain/Sex: CF-1/FEMALE, Target Tissue: Type of Lesion: COLON: TUMOR, Dose [Carcinogen]: 20 MG/KG BW 1/WK FOR 6 WK, Promoter: NONE USED) is given as 7/15 (47%), 2/10 (20%), 57%, p=0.08.
In the case of `NC(C[Se][Se]CC(N)C(=O)O)C(=O)O` (stereo not drawn), the “tumour outcome (control, treated, inhibition, significance)” value (Carcinogen: 7,12-DIMETHYLBENZ[A]ANTHRACENE, 57-97-6, Dose [Inhibitor]: 0, 0.2 PPM IN DIET BEGINNING 3 D PRIOR TO CARCINOGEN DOSE AND CONTINUING FOR 8 MO (STUDY DURATION: 8 MO), Route [Inhibitor]: ORAL, Species: MOUSE, Strain/Sex: BALB/FEMALE, Target Tissue: Type of Lesion: MAMMARY GLAND: ADENOCARCINOMA, Dose [Carcinogen]: 1 MG/WK FOR 6 WK, Promoter: NONE USED) is listed as 12/31 (39%), 8/28 (29%), 26%, not calculated and the “tumour outcome (control, treated, inhibition, significance)” value (Carcinogen: 7,12-DIMETHYLBENZ[A]ANTHRACENE, 57-97-6, Dose [Inhibitor]: 0, 2 PPM IN DIET BEGINNING 3 D PRIOR TO CARCINOGEN DOSE AND CONTINUING FOR 8 MO (STUDY DURATION: 8 MO), Route [Inhibitor]: ORAL, Species: MOUSE, Strain/Sex: BALB/FEMALE, Target Tissue: Type of Lesion: MAMMARY GLAND: ADENOCARCINOMA, Dose [Carcinogen]: 1 MG/WK FOR 6 WK, Promoter: NONE USED) is listed as 12/31 (39%), 7/24 (29%), 26%, not calculated.
For `CCNC(=O)[C@@H]1CCCN1C(=O)[C@H](CCCN=C(N)N)NC(=O)[C@H](CC(C)C)NC(=O)[C@@H](CC(C)C)NC(=O)[C@H](Cc1ccc(O)cc1)NC(=O)[C@H](CO)NC(=O)[C@H](Cc1c[nH]c2ccccc12)NC(=O)[C@H](Cc1cnc[nH]1)NC(=O)[C@@H]1CCC(=O)N1`, the “tumour outcome (control, treated, inhibition, significance)” value (Carcinogen: N-BUTYL-N-(4-HYDROXYBUTYL)NITROSAMINE, 3817-11-6, Dose [Inhibitor]: 0, 1 MG/KG 1/4 WK FOR 11 WK BEGINNING POST CARCINOGEN TREATMENT (STUDY DURATION: 21 WK), Route [Inhibitor]: SUBCUTANEOUS, Species: RAT, Strain/Sex: WISTAR/MALE, Target Tissue: Type of Lesion: URINARY BLADDER:CARCINOMA, Dose [Carcinogen]: 0.05% IN DRINKING WATER FOR 10 WK, Promoter: NONE USED) is listed as 15/17 (88%), 10/18 (56%), 36%, p<0.05.
For `CC(C)CC(=O)N[C@H](C(=O)N[C@H](C(=O)N[C@@H](CC(C)C)[C@@H](O)CC(=O)N[C@@H](C)C(=O)N[C@@H](CC(C)C)[C@@H](O)CC(=O)O)C(C)C)C(C)C` (Isovaleryl-VV[Sta]A[Sta]-OH), the “tumour outcome (control, treated, inhibition, significance)” value (Carcinogen: 1,2,3,4,5,6-HEXACHLOROCYCLOHEXANE, 319-84-6, Dose [Inhibitor]: 0.1% IN DIET FOR 12 WK FOLLOWING CARCINOGEN TREATMENT REGIMEN (STUDY DURATION: 48 WK), Route [Inhibitor]: ORAL, Species: MOUSE, Strain/Sex: DDY/MALE, Target Tissue: Type of Lesion: LIVER: NODULAR HYPERPLASIA, Dose [Carcinogen]: 500 PPM IN DIET FOR 24 WK, Promoter: NONE USED) is given as 1/13 (8%), 1/12 (8%), 0%, not significant and the “tumour outcome (control, treated, inhibition, significance)” value (Carcinogen: N-BUTYL-N-(4-HYDROXY-BUTYL)NITROSAMINE, 3817-11-6, Dose [Inhibitor]: 0.1% IN DIET FOR 32 WK FOLLOWING CARCINOGEN TREATMENT REGIMEN (STUDY DURATION: 40 WK), Route [Inhibitor]: ORAL, Species: MOUSE, Strain/Sex: ICR/MALE, Target Tissue: Type of Lesion: URINARY BLADDER: TUMOR, Dose [Carcinogen]: 0.05% IN DRINKING WATER FOR FIRST 8 WK, Promoter: NONE USED) is given as 6/13 (46%), 8/10 (80%), -74%, not calculated.
In the case of `C#CCCCc1ccccc1`, the “tumour outcome (control, treated, inhibition, significance)” value (Carcinogen: 4-(METHYLNITROSAMINO)-1-(3-PYRIDYL)-1-BUTANONE, 64091-91-4, Dose [Inhibitor]: 0, 5 UMOL IN 0.1 ML CORN OIL ONCE 2 HR PRIOR TO CARCINOGEN DOSE (STUDY DURATION: 16 WK), Route [Inhibitor]: GAVAGE, Species: MOUSE, Strain/Sex: STRAIN-A/FEMALE, Target Tissue: Type of Lesion: LUNG: ADENOMA, Dose [Carcinogen]: 10 UMOL IN 0.1 ML SALINE ONCE, Promoter: NONE USED) is given as 100%, 25%, 75%, p<0.01.
For `CC(C)(C)c1cc(COCc2cc(C(C)(C)C)c(O)c(C(C)(C)C)c2)cc(C(C)(C)C)c1O`, the “tumour outcome (control, treated, inhibition, significance)” value (Carcinogen: BENZO[A]PYRENE, 50-32-8, Dose [Inhibitor]: 0.03 MMOL/G OF DIET DAILY STARTING 7 D BEFORE AND CONTINUING THROUGH 3 D AFTER CARCINOGEN TREATMENT FOLLOWED BY OBSERVAT, Route [Inhibitor]: ORAL, Species: MOUSE, Strain/Sex: ICR/FEMALE, Target Tissue: Type of Lesion: FORESTOMACH: NEOPLASM, Dose [Carcinogen]: 1 MG IN 0.2 ML CORN OIL 2/WK FOR 4 WK, Promoter: NONE USED) is given as 94%, 95%, -1%, not significant.
In the case of `Cn1c(=O)[nH]c2nc[nH]c2c1=O`, the “tumour outcome (control, treated, inhibition, significance)” value (Carcinogen: URETHANE, 51-79-6, Dose [Inhibitor]: 0.05 UMOL/G BW GIVEN AT 6 HR INTERVALS DURING THE PERIOD OF 0 TO 36 HR AFTER CARCINOGEN TREATMENT FOLLOWED BY 5 MO OBSER, Route [Inhibitor]: INTRAPERITONEAL, Species: MOUSE, Strain/Sex: ICR/FEMALE, Target Tissue: Type of Lesion: LUNG: PAPILLARY ADENOMA, Dose [Carcinogen]: 0.1 MG/G BW ONCE, Promoter: NONE USED) is given as 31/59 (53%), 18/36 (50%), 6%, not significant and the “tumour outcome (control, treated, inhibition, significance)” value (Carcinogen: URETHANE, 51-79-6, Dose [Inhibitor]: 0.25 UMOL/G BW 1/D DURING THE PERIOD OF 5 TO 9 D AFTER CARCINOGEN TREATMENT FOLLOWED BY OBSERVATION PERIOD UNTIL END OF, Route [Inhibitor]: INTRAPERITONEAL, Species: MOUSE, Strain/Sex: ICR/FEMALE, Target Tissue: Type of Lesion: LUNG: PAPILLARY ADENOMA, Dose [Carcinogen]: 1 MG/G BW ONCE, Promoter: NONE USED) is given as 49/53 (93%), 39/43 (91%), 2%, not significant.
For `CC(C)(O)/C=C/C(=O)[C@](C)(O)[C@H]1[C@H](O)C[C@@]2(C)[C@@H]3CC=C4[C@@H](C[C@H](O)[C@@H](O)C4(C)C)[C@]3(C)C(=O)C[C@]12C`, the “tumour outcome (control, treated, inhibition, significance)” value (Carcinogen: 7,12-DIMETHYLBENZ[A]ANTHRACENE, 57-97-6, Dose [Inhibitor]: 0, 85 NMOL IN 0.1 ML ACETONE APPLIED 1 HR PRIOR TO EACH PROMOTER DOSE 2/WK FOR 20 WK (STUDY DURATION: 21 WK), Route [Inhibitor]: DERMAL, Species: MOUSE, Strain/Sex: ICR/FEMALE, Target Tissue: Type of Lesion: SKIN: PAPILLOMA, Dose [Carcinogen]: 100 UG IN 0.1 ML ACETONE ONCE, Promoter: 12-O-TETRADECANOYLPHORBOL-13-ACETATE, 16561-29-8) is listed as 100%, 100%, 0%, not significant.
